Measurements as given in ChEMBL document CHEMBL4811258, “Potent Antimalarials with Development Potential Identified by Structure-Guided Computational Optimization of a Pyrrole-Based Dihydroorotate Dehydrogenase Inhibitor Series” (J Med Chem, 2021).

What was measured:
[1] = system: Plasmodium falciparum; assay: microbe, parasite or virus in culture; conditions: 3D7, 72 h
[2] = Inhibition of Plasmodium falciparum DHODH expressed in Escherichia coli BL21-DE3 using L-dihydroorotate as substrate by steady-state DCIP method
[3] = Inhibition of Plasmodium vivax DHODH expressed in Escherichia coli BL21-DE3 using L-dihydroorotate as substrate by steady-state DCIP method
[4] = system: Plasmodium falciparum

Structure (SMILES) | EC50 [1] [nM] | IC50 [2] [nM] | IC50 [3] [nM] | EC50 [4] [nM]
Cc1c(-c2n[nH]c3nc(C(F)(F)F)ccc23)c[nH]c1C(=O)NCC(F)(F)F | > 10000 | 3900 |  | 
COC1COCC1NC(=O)c1[nH]cc(Cc2ccc(C(F)(F)F)nc2)c1C (centres undefined) | 1100 | 17000 |  | 
Cc1c(-c2n[nH]c3nc(C(F)(F)F)ccc23)c[nH]c1C(=O)N1CC(F)(F)C1 | > 10000 | 2100 |  | 
COC(=O)c1c(Cc2ccc(C(F)(F)F)nc2)c[nH]c1C(=O)NC1CC1 | 1400 | 6400 |  | 
CNC(=O)[C@@H](C)NC(=O)c1[nH]cc(Cc2ccc(C(F)(F)F)nc2)c1C | 8900 | 39000 |  | 
Cc1c(Cc2ccc(C(F)(F)F)nc2)c[nH]c1C(=O)NC1COC1 | 74 | 110 |  | 
Cc1c(Cc2ccc(S(=O)(=O)N(C)C)cc2)c[nH]c1C(=O)NC1CC1 | 700 | 1500 |  | 
CNC(=O)c1c(Cc2ccc(C(F)(F)F)nc2)c[nH]c1C(=O)NC1CC1 | 3400 | 16000 |  | 
Cc1c(-c2c[nH]c3cc(C(F)(F)F)ccc23)c[nH]c1C(=O)NCC(F)(F)F | 1200 | 18000 |  | 
Cc1c(Cc2ccc(C(F)(F)F)nc2)c[nH]c1C(=O)N[C@H](C)C(N)=O | > 10000 | > 100000 |  | 
Cc1c(-c2c[nH]c3nc(C(F)(F)F)ccc23)c[nH]c1C(=O)NCC(F)(F)F | 50 | 500 |  | 
NC(=O)c1c(Cc2ccc(C(F)(F)F)nc2)c[nH]c1C(=O)NC1CC1 | 2100 | 4900 |  | 
Cc1c(-c2c[nH]c3cc(C(F)(F)F)ccc23)c[nH]c1C(=O)NC1CC1 | 190 | 1600 |  | 
Cc1c(-c2n[nH]c3cc(C(F)(F)F)ccc23)c[nH]c1C(=O)NCC(F)(F)F | 610 | 22000 |  | 
Cc1c(Cc2ccc(C(F)(F)F)nc2)c[nH]c1C(=O)NCc1cc[nH]n1 | 1400 | 17000 |  | 
Cc1c(Cc2ccc(C(F)(F)F)nc2)c[nH]c1C(=O)N[C@H](C)CO | 2100 | 2700 |  | 
Cc1c(-c2n[nH]c3cc(C(F)(F)F)ccc23)c[nH]c1C(=O)NC1CC1 | 250 | 4100 |  | 
Cc1c(Cc2ccc(C(F)(F)F)nc2)c[nH]c1C(=O)NC1COCC1O (centres undefined) | 6400 | 61000 |  | 
Cc1c(-c2c[nH]c3cc(C(F)(F)F)ccc23)c[nH]c1C(=O)N1CC(F)(F)C1 | 620 | 16000 |  | 
Cc1c(-c2c[nH]c3nc(C(F)(F)F)ccc23)c[nH]c1C(=O)N1CC(F)(F)C1 | 32 | 110 |  | 
Cc1c(-c2n[nH]c3cc(C(F)(F)F)ccc23)c[nH]c1C(=O)N1CC(F)(F)C1 | 480 | 3600 |  | 
Cc1c(C2(c3ccc(C(F)(F)F)nc3)CC2)c[nH]c1C(=O)NC(C)c1cc(C(N)=O)[nH]n1 (racemic) |  | 260 | 180 | 3000
Cc1c(Cc2ccc(C(F)(F)F)nc2)c[nH]c1C(=O)NC(C)c1cc(C(N)=O)[nH]n1 (racemic) |  | 650 | 430 | 51
Cc1c(Cc2ccc(C(F)(F)F)nc2)c[nH]c1C(=O)NC(C)c1cn[nH]c1 (racemic) |  | 61 | 48 | 9
Cc1c(Cc2ccc(C(F)(F)F)nc2)c[nH]c1C(=O)NC(C)c1cnn(C)c1 (racemic) |  |  | 62 | 5.5
Cc1c(Cc2ccc(C(F)(F)F)nc2)c[nH]c1C(=O)NC(C)c1nc[nH]n1 (racemic) |  | 260 | 120 | 160

Structure (SMILES) | EC50 [1] [nM] | IC50 [2] [nM] | IC50 [3] [nM] | EC50 [4] [nM]
Cc1c(Cc2ccc(C(F)(F)F)nc2C#N)c[nH]c1C(=O)NC(C)c1nc[nH]n1 (racemic) | 2300 | 1900 |  | 
Cc1c(-c2n[nH]c3cc(C(F)(F)F)ccc23)c[nH]c1C(=O)NC(C)c1cc(C(N)=O)[nH]n1 (racemic) | 500 | 32000 |  | 
Cc1cc(C(C)NC(=O)c2[nH]cc(Cc3ccc(C(F)(F)F)nc3)c2C)no1 (racemic) |  |  | 30 | 9
Cc1c(Cc2ccc(C(F)(F)F)nc2)c[nH]c1C(=O)NC(C)c1cc[nH]n1 (racemic) | 43 | 270 |  | 
Cc1c(Cc2cccc(F)c2C#N)c[nH]c1C(=O)NC(C)c1nc[nH]n1 (racemic) | 1100 | 480 |  | 
Cc1c(Cc2ccc(C(F)(F)F)nc2)c[nH]c1C(=O)NC(C)c1ncn(C)n1 (racemic) | 13000 | 4000 |  | 
Cc1cc(C(C)NC(=O)c2[nH]cc(C3(c4ccc(C(F)(F)F)nc4)CC3)c2C)n[nH]1 (stereo in doubt; form 1) | 3300 |  |  | 
Cc1[nH]c(C(=O)NC(C)c2nc[nH]n2)c(C)c1Cc1ccc(C(F)(F)F)nc1 (stereo in doubt; form 1) |  | 290 | 140 | 140
Cc1cc(C(C)NC(=O)c2[nH]c(C)c(Cc3ccc(C(F)(F)F)nc3)c2C)no1 (stereo in doubt; form 1) |  | 65 | 30 | 12
Cc1c(Cc2ccc(C(F)(F)F)nc2)c[nH]c1C(=O)NC(C)c1cc(C(N)=O)[nH]n1 (stereo in doubt; form 1) |  | 35000 | 230 | 24
Cc1c(Cc2ccc(F)c3ccncc23)c[nH]c1C(=O)NC(C)c1nc[nH]n1 (stereo in doubt; form 1) |  | 44 | 29 | 9.5
Cc1c(C2(c3cccc(C(F)(F)F)c3)CC2)c[nH]c1C(=O)NC(C)c1nc[nH]n1 (stereo in doubt; form 1) |  | 110 | 40 | 48
Cc1c(Cc2ccc(C(F)(F)F)nc2)c[nH]c1C(=O)NC(C)c1nc[nH]n1 (stereo in doubt; form 1) |  | 250 | 110 | 66
Cc1cc(C(C)NC(=O)c2[nH]cc(C3(c4ccc(C(F)(F)F)nc4)CC3)c2C)no1 (stereo in doubt; form 1) |  | 16 | 30 | 11
Cc1c(C2(c3ccc(C(F)(F)F)c(F)c3)CC2)c[nH]c1C(=O)NC(C)c1nc[nH]n1 (stereo in doubt; form 1) |  | 110 | 61 | 29
Cc1[nH]c(C(=O)NC(C)c2cn[nH]c2)c(C)c1Cc1ccc(C(F)(F)F)nc1 (stereo in doubt; form 1) |  | 87 | 88 | 6
Cc1cc(C(C)NC(=O)c2[nH]cc(Cc3ccc(C(F)(F)F)cc3)c2C)no1 (stereo in doubt; form 1) |  | 46 | 13 | 170
Cc1cc(C(C)NC(=O)c2[nH]cc(Cc3ccc(C(F)(F)F)nc3)c2C)n[nH]1 (stereo in doubt; form 1) |  | 100 | 69 | 20
Cc1c(Cc2ccc(C(F)(F)F)cc2F)c[nH]c1C(=O)NC(C)c1nc[nH]n1 (stereo in doubt; form 1) |  | 35000 | 73 | 150
Cc1c(Cc2ccc(C(F)(F)F)nc2)c[nH]c1C(=O)NC(C)c1cc(C#N)[nH]n1 (stereo in doubt; form 1) |  | 120 | 83 | 17
Cc1c(C2(c3ccc(C(F)(F)F)nc3)CC2)c[nH]c1C(=O)NC(C)c1cc(C#N)[nH]n1 (stereo in doubt; form 1) | 1700 |  |  | 
Cc1c(C(=O)NC(C)c2nc[nH]n2)[nH]c(Cl)c1Cc1ccc(C(F)(F)F)nc1 (stereo in doubt; form 2) |  | 200 | 63 | 40
Cc1cc(C(C)NC(=O)c2[nH]c(C)c(Cc3ccc(C(F)(F)F)nc3)c2C#N)no1 (stereo in doubt; form 2) |  | 95 | 99 | 64
Cc1cc(C(C)NC(=O)c2[nH]cc(-c3n[nH]c4cc(C(F)(F)F)ccc34)c2C)no1 (stereo in doubt; form 2) |  | 560 | 69 | 62
Cc1[nH]c(C(=O)N[C@H](C)c2cn[nH]c2)c(C#N)c1Cc1ccc(C(F)(F)F)nc1 (stereo in doubt; form 2) |  | 660 | 440 | 170
Cc1[nH]c(C(=O)NC(C)c2cnn(C)c2)c(C)c1Cc1ccc(C(F)(F)F)nc1 (stereo in doubt; form 2) |  | 88 | 76 | 17
